# Laboratory results as given in ChEMBL document CHEMBL4346710, “Discovery of 7H-pyrrolo[2,3-d]pyrimidine derivatives as selective covalent irreversible inhibitors of interleukin-2-inducible T-cell kinase (Itk)” (Eur J Med Chem, 2019).
# Calls of active or inactive are those of the source. No cut-off for these calls is given here.
# What was measured:
# TAK1/TAB1 (Homo sapiens) = TAK1/TAB1 (Homo sapiens) (UniProt Q15750+O43318); assay: Inhibition of tracer 222 binding to recombinant full-length human His-tagged MAP3K7/MAP3K7IP1 (437 to 504 residues) expressed in baculovirus expression system assessed as enzyme residual activity at 0.4 uM incubated for 60 mins by Lanthascreen assay relative to control
# Jurkat [1] = assay: Induction of apoptosis in human Jurkat cells assessed as downregulation of PARP at 1 to 20 uM incubated for 24 hrs by Western blot analysis; assay type: functional, cell-based
# [2] = molecular target: Mitogen-activated protein kinase 3 (Homo sapiens) (UniProt P27361); assay: Inhibition of recombinant full length human GST-tagged ERK1 expressed in Escherichia coli assessed as enzyme residual activity at 0.4 uM using fluorophore-labeled serine/threonine-3 peptide as substrate incubated for 60 mins by Z'-LYTE assay relative to control
# Sequence of Mitogen-activated protein kinase 3 (Homo sapiens) (P27361 whole entry): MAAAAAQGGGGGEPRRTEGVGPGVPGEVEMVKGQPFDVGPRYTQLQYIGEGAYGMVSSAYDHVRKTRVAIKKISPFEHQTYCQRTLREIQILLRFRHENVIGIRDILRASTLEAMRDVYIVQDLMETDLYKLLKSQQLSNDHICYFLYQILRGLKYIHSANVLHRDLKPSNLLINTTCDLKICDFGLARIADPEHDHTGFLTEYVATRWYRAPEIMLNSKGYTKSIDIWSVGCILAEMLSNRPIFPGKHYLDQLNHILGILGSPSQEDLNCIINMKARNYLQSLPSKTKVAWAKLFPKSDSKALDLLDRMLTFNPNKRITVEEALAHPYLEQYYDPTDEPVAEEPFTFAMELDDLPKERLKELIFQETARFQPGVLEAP
# HEK-293T = assay: Growth inhibition of HEK293T cells incubated for 72 hrs by CellTiter-Glo luminescent cell viability assay; assay type: functional; settings: Homo sapiens
# [3] = molecular target: Tyrosine-protein kinase Lck (Homo sapiens, UniProt P06239); assay: Inhibition of recombinant full length human C-terminal His-tagged LCK cytoplasmic domain expressed in baculovirus expression system using fluorophore-labeled tyrosine-2 peptide as substrate incubated for 60 mins by Z'-LYTE assay
# Sequence of Tyrosine-protein kinase Lck (P06239 whole entry, the tested form may be a part): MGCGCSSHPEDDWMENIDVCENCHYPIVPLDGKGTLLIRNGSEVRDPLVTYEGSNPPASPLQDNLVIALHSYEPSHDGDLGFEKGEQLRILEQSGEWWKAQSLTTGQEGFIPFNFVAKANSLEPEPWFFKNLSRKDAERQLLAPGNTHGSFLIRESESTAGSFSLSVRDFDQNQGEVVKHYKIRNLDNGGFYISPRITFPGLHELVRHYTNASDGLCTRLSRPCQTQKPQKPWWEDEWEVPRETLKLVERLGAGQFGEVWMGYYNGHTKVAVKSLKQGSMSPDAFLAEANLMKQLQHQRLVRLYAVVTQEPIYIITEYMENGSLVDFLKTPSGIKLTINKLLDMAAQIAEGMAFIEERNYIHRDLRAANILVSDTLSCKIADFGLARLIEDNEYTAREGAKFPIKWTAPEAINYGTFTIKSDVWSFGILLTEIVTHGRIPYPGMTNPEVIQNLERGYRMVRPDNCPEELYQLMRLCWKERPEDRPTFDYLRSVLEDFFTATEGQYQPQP
# [4] = molecular target: T1, Tyrosine-protein kinase JAK3 (Homo sapiens, UniProt P52333); assay: Inhibition of recombinant human N-terminal His6-tagged JAK3 (781 to end residues) expressed in baculovirus infected Sf21 cells using STK as substrate by HTRF assay
# T1 sequence (P52333 whole entry): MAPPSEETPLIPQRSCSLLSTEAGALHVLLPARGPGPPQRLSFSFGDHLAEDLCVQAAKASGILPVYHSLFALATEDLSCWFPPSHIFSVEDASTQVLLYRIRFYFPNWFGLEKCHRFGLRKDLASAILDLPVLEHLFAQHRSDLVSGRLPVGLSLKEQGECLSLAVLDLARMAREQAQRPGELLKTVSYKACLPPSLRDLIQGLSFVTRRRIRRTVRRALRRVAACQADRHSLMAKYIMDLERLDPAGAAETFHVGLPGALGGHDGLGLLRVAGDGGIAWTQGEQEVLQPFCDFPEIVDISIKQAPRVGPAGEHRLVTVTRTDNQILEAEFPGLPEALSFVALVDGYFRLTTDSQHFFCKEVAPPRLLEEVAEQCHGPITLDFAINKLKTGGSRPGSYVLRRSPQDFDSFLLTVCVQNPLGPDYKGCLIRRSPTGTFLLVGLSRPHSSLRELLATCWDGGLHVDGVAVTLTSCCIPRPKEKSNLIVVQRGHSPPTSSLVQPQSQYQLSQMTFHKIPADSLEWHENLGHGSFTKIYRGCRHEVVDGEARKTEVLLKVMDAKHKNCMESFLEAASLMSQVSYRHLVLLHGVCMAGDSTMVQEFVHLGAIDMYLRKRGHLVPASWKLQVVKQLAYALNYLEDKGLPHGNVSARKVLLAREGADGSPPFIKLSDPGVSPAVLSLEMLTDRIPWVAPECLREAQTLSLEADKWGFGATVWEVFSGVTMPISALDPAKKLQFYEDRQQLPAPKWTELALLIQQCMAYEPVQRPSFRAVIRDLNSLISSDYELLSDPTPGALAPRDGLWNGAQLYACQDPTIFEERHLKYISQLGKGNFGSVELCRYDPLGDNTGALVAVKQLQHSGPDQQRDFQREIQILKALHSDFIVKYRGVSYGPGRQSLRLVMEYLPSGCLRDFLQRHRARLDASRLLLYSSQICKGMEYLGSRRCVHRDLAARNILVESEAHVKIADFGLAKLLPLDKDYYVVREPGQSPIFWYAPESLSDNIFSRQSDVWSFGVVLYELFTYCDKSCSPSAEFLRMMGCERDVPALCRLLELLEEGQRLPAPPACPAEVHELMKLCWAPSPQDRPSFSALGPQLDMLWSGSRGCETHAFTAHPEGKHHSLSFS
# [5] = molecular target: Mitogen-activated protein kinase 14 (Homo sapiens) (UniProt Q16539); assay: Inhibition of recombinant full length human GST-tagged MAPK14 expressed in Escherichia coli assessed as enzyme residual activity at 0.4 uM using fluorophore-labeled serine/threonine-04 peptide as substrate incubated for 60 mins by Z'-LYTE assay relative to control
# Sequence of Mitogen-activated protein kinase 14 (Homo sapiens) (Q16539 whole entry, canonical isoform): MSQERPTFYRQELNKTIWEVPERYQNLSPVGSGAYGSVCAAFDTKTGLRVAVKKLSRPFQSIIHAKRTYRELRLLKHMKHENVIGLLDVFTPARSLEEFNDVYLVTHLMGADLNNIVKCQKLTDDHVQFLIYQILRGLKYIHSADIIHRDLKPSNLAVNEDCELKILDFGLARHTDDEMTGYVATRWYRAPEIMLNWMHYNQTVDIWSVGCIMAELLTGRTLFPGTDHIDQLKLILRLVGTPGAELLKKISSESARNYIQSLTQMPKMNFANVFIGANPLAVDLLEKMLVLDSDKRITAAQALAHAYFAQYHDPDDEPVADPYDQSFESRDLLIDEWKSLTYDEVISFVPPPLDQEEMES
# [6] = molecular target: Casein kinase I isoform alpha (Homo sapiens) (UniProt P48729); assay: Inhibition of recombinant full length human GST-tagged CSNK1A1 expressed in baculovirus expression system assessed as enzyme residual activity at 0.4 uM using fluorophore-labeled serine/threonine-11 peptide as substrate incubated for 60 mins by Z'-LYTE assay relative to control
# Sequence of Casein kinase I isoform alpha (Homo sapiens) (P48729 2-337 limits assumed): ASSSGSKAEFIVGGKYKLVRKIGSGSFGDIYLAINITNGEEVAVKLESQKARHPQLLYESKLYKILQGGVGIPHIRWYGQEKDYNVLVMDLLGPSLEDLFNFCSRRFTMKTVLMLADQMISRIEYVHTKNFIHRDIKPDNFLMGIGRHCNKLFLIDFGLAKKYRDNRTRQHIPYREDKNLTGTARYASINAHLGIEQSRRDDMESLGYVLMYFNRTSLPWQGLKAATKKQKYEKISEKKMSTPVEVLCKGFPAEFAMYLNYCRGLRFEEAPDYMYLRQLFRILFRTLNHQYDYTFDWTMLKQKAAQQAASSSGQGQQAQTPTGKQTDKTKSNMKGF
# CCRF-CEM = assay: Induction of apoptosis in human CCRF-CEM cells assessed as upregulation of cleaved PARP at 1 to 5 uM incubated for 24 hrs by Western blot analysis; assay type: functional, cell-based
# [7] = molecular target: Glycogen synthase kinase-3 alpha (Homo sapiens) (UniProt P49840); assay: Inhibition of recombinant full length human His-tagged GSK3alpha expressed in baculovirus expression system assessed as enzyme residual activity at 0.4 uM using fluorophore-labeled serine/threonine-9 peptide as substrate incubated for 60 mins by Z'-LYTE assay relative to control
# Sequence of Glycogen synthase kinase-3 alpha (Homo sapiens) (P49840 2-483 limits assumed): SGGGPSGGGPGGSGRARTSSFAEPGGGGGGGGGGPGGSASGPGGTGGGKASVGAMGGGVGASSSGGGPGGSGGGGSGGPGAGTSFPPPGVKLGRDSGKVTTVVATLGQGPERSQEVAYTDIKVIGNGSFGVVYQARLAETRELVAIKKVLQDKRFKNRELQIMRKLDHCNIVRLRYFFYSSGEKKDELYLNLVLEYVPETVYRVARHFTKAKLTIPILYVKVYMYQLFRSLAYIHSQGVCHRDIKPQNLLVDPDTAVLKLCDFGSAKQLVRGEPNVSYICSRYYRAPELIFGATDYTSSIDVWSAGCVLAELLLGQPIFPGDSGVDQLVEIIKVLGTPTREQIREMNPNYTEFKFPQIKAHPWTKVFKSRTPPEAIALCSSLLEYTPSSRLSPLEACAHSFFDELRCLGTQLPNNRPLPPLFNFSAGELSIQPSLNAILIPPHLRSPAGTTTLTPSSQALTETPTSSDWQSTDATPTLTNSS
# MOLT-4 = assay: Induction of apoptosis in human MOLT4 cells assessed as downregulation of PARP at 1 to 20 uM incubated for 24 hrs by Western blot analysis; assay type: functional, cell-based
# [8] = molecular target: Epidermal growth factor receptor (Homo sapiens, UniProt P00533); assay: Inhibition of recombinant human N-terminal GST-tagged EGFR kinase domain (696 to end residues) expressed in baculovirus infected Sf21 insect cells using STK as substrate by HTRF assay
# Sequence of Epidermal growth factor receptor (P00533 whole entry, the tested form may be a part): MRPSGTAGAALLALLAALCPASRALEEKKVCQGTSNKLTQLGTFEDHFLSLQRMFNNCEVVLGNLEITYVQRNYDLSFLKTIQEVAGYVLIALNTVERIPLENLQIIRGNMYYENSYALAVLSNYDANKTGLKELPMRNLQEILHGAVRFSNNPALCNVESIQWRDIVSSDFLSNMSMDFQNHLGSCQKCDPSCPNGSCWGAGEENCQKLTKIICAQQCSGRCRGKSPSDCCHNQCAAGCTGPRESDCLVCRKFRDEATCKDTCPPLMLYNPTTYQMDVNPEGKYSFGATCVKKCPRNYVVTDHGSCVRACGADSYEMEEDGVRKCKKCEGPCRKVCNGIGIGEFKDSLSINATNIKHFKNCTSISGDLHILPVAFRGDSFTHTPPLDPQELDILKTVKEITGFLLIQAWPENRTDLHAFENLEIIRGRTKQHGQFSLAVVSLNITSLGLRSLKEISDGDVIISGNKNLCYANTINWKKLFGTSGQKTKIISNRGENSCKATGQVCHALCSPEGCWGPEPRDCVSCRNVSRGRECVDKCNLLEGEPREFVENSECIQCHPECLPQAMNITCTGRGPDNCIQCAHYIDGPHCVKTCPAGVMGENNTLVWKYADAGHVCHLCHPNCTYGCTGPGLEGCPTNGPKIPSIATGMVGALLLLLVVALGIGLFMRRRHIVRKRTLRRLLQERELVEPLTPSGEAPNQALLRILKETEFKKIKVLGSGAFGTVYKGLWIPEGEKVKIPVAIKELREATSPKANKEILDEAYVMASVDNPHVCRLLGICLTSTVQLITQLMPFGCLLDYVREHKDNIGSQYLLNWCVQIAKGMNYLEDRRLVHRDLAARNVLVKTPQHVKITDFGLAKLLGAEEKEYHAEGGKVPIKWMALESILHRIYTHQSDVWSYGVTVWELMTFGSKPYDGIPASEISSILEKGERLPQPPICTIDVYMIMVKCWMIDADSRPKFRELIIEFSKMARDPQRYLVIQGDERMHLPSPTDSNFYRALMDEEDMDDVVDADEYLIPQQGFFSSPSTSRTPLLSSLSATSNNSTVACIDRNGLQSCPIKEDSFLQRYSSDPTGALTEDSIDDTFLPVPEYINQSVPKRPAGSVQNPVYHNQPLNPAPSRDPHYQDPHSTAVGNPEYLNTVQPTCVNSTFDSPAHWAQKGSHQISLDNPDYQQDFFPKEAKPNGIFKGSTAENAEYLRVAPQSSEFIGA
# [9] = molecular target: Insulin-like growth factor 1 receptor (Homo sapiens) (UniProt P08069); assay: Inhibition of recombinant human His-tagged IGF1R cytoplasmic domain ([…]) expressed in baculovirus expression system assessed as enzyme residual activity at 0.4 uM using fluorophore-labeled tyrosine-1 peptide as substrate incubated for 60 mins by Z'-LYTE assay relative to control
# [10] = Inhibition of tracer 236 binding to recombinant full length human C-terminal His-tagged AMPK alpha2/beta2/gamma1 expressed in baculovirus infected Sf9 cells assessed as enzyme residual activity at 0.4 uM incubated for 60 mins by Lanthascreen assay relative to control
# [11] = molecular target: Aurora kinase B (Homo sapiens) (UniProt Q96GD4); assay: Inhibition of recombinant full length human His-tagged Aurora B expressed in baculovirus expression system assessed as enzyme residual activity at 0.4 uM using fluorophore-labeled serine/threonine-1 peptide as substrate incubated for 60 mins by Z'-LYTE assay relative to control
# Sequence of Aurora kinase B (Homo sapiens) (Q96GD4 whole entry): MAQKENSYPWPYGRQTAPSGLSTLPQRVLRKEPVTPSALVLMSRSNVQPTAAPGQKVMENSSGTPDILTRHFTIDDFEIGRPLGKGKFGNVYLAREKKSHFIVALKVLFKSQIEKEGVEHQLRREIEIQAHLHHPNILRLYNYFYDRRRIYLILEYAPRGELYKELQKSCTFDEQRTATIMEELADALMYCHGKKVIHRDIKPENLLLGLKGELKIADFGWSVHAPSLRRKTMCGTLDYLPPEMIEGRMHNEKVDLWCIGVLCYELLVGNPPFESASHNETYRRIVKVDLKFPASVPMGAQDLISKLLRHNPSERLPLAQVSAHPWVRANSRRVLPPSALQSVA
# Jurkat [12] = assay: Induction of apoptosis in human Jurkat cells assessed as downregulation of caspase3 at 1 to 20 uM incubated for 24 hrs by Western blot analysis; assay type: functional, cell-based
# [13] = molecular target: Receptor-type tyrosine-protein kinase FLT3 (Homo sapiens) (UniProt P36888); assay: Inhibition of recombinant human His-tagged FLT3 cytoplasmic domain (564 to 958 residues) expressed in baculovirus expression system assessed as enzyme residual activity at 0.4 uM using fluorophore-labeled tyrosine-2 peptide as substrate incubated for 60 mins by Z'-LYTE assay relative to control
# Sequence of Receptor-type tyrosine-protein kinase FLT3 (Homo sapiens) (P36888 whole entry, the tested form may be a part): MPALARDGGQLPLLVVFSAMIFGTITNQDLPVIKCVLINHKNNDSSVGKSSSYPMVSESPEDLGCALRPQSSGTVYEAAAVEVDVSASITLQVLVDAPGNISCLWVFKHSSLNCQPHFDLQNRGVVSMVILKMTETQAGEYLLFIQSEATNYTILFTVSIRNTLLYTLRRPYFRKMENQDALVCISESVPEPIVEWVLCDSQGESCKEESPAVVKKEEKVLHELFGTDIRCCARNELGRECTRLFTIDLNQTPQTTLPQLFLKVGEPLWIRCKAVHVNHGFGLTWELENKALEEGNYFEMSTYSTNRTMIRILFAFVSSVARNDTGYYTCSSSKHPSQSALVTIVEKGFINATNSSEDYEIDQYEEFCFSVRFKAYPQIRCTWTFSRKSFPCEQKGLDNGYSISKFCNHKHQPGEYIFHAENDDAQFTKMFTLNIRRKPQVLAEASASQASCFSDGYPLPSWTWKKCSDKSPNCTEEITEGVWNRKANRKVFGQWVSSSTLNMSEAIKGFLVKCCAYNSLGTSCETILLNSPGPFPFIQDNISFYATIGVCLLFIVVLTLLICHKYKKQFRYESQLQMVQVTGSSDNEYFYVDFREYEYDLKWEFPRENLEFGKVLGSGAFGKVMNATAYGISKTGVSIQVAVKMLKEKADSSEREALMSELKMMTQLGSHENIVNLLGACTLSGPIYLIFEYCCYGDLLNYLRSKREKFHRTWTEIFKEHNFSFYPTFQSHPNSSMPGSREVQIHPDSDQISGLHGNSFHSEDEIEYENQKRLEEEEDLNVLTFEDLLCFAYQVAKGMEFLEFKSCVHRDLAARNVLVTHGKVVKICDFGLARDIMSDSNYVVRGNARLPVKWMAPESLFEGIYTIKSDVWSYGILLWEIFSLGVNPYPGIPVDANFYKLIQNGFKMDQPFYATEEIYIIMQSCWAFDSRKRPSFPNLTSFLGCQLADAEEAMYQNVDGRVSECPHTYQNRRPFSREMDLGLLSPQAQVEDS
compound,measurement,setting,value
C=CC(=O)N1CCC(Oc2nc(Nc3ccc(N4CCOCC4)cc3)nc3[nH]cc(-c4cncc(NC)n4)c23)CC1,Activity,TAK1/TAB1 (Homo sapiens),0%
same,Activity,Jurkat [1],Active
same,Activity,[2],98.7%
same,GI50,HEK-293T,544 nM
same,IC50,[3],74 nM
same,IC50,[4],123 nM
same,Activity,[5],95%
same,Activity,[6],92.7%
same,Activity,CCRF-CEM,Active
same,Activity,[7],29.3%
same,Activity,MOLT-4,Active
same,IC50,[8],1260 nM
same,Activity,[9],84%
same,Activity,[10],64.3%
same,Activity,[11],36%
same,Activity,Jurkat [12],Active
same,Activity,[13],2.3%
